Test results reported in article PMC10613275 (Scientific Reports, 2023).
Where two headings read alike, the source gives them in different places.

Assays:
Hek293 cells = conditions: Hek293 ref 2; cited from earlier work
rats = test system: rats; parameters: method as in PMID 32461162; conditions: parental rats F0 and F1 in vivo ref 3; cited from earlier work
mouse lymphoma cells = test system: mouse lymphoma cells; parameters: method as in earlier work; conditions: cited from earlier work
CHO-K1 cells (hprt gene) [1] = assay: CHO/HPRT mutation assay; assay type: cell-based, Chinese hamster; conditions: lilial 500 µM, 3MC 2 µg/ml
[2] = parameters: method as in PMID 32461162; conditions: cited from earlier work
dogs = conditions: dog, in vivo; cited from earlier work
NF-κB signal pathway = NF-κB signal pathway activation, luciferase reporter in transfected HEK293; assay type: cell-based, human; conditions: HEK293, 100 µM (Table 1), 5 h
Description: […]. HEK293 cells were transiently transfected with reporter plasmid pGL4.32 (luc2P/NF-κB-RE/Hygro, Promega Corporation, Madison, Wisconsin, USA) or pGL4.37 (luc2P/NRF2-ARE/Hygro) using FuGENE (Promega Corporation). Plasmid pEGFP-C1 carrying the gene for green fluorescent protein (GFP) was co-transfected with the reporter plasmids as a normalization plasmid enabling normalization of the signal to transfection level. […] To test the activation of NRF2-ARE pathway, tert-butyl hydroquinone (TBHQ, in the range from 4 to 63 µM) as a positive control or samples (50 µM) were incubated with the cells for 18 h. The fluorescence (488/513 nm) was determined using SpectraMax i3x Multi-Mode Microplate Reader (Molecular Devices, San Jose, California, USA). Subsequent quantification of luciferase activity was performed using the Bright-Glo™ Luciferase Assay System (Promega Corporation) according to the manufacturer’s instructions.

[3] = parameters: method as in earlier work; conditions: human volunteers, cited from earlier work
[4] = test system: NRF2 protein in THP-1 cells; conditions: 650 µM, 5 h ref 15; cited from earlier work
HaCaT cells = conditions: 10 µM ref 2; cited from earlier work
[5] = Cytotoxicity, cell viability (resazurin assay), HeLa9903; assay type: cell-based, human; conditions: human, HeLa9903 cells, all concentrations up to 100 µM, vs vehicle control, read-out: Relative viability
HeLa9903 cells = assay: as above; assay type: cell-based, human; conditions: 1 nm–100 µM, 1 day
HeLa cells = assay: γH2AX biomarker-based genotoxicity assay, HeLa; assay type: cell-based, human; conditions: for MoA (mean fluorescence values over area of the nuclei): PC 30 μM
Method: Briefly, HeLa and CHO-K1 cells were seeded at a concentration of 1 × 10^5 cells/ml into the 96-well plates. CHO-K1 cells were used for comparison with HPRT test. HeLa cells were recommended by the manufacturer of the kit. After 24 h, cells were rinsed with PBS and cultivation medium (“Cell lines” Section) without ATB, with a reduced content of FBS (5%) was added. 30 µM valinomycin (in DMSO) was used as a positive control Samples were applied in the presence of non-toxic sample concentrations, i.e. 100 µM either with or without S9 mix. […] Cells were photographed using a fluorescence microscope (Olympus IX83); filters: DAPI (500 ms) and Cy3 (500 ms). Bioimage analysis in ImageJ software was performed as described previously.

[6] = parameters: method as in earlier work; conditions: guinea pigs, 1% p-BMHCA in ethanol, 120 µg substance/cm^2, 16 h ref 4; cited from earlier work
CHO-K1 cells (hprt gene) [7] = assay: CHO/HPRT mutation assay; assay type: cell-based, Chinese hamster; conditions: for Mutagenicity result: 50 µM without, 500 µM with metabolic activation
Method: The test with metabolic activation was performed as described in the OECD protocol, the ASTM standard[23] and other protocols[30],[31] and publications. For the test, cryopreserved CHO-K1 cells after the mutant cleansing were used. Mutant cleansing was performed according to[30], i.e. cells were cultivated three days in HAT medium, one day in HT medium and then frozen.
One passage after the thawing, 1 × 10^6 cells were seeded in 60 mm cultivation plates as described in[32]. […] The final concentration of the solvent, DMSO, was 1%. […] EMS at final concentration 2 mM as recommended in[31] served as a positive control. 3-MC at final concentration […][22] served as a positive control for metabolic activation. 1% DMSO was used as a VC. Sole cultivation medium served as a negative control (NC). After 4 h, the medium with tested substances was removed, plates were washed with PBS and fresh medium with 10% FBS was added.
During the expression period (1 week), the cells on all 60 mm plates were passaged once. On day 8, cells were trypsinized, resuspended, counted and 2 × 10^5 cells of each plate were seeded on 60 mm plates in triplicates in the presence of a selective agents, 6-TG (30 µM) as described in[32]. […] 300 cells without the selective agent were seeded in a parallel to evaluate plating efficiency (PE). On day 15, the plates were washed with PBS, cells were fixed with ice cold methanol for 10 min and stained with 0.05% crystal violet in water for 30 min[33]. After washing with water, formed colonies were counted using Schuett Count (Schuett-biotec, Göttingen, Germany). Calculations were done as described in[29]. PE was calculated according to a general Eq. 1. Particular PE at selective conditions was calculated according to Eq. 2. Particular PE at non-selective conditions was calculated according to Eq. 3. Mutation frequency (MF) was calculated according to Eq. 4.1 PE=numberofcoloniesformed/numberofcellsplated 2 PEselective=numberofmutantcoloniesNMC/200,000 3 PEnon-selective=numberofcoloniesformed/300 4 MF=PEselectiveconditions/PEnon-selectiveconditions

Caco-2 cells = conditions: Caco-2, 100 µM ref 2; cited from earlier work
[8] = Metabolic activation with rat liver S9, GC/HRMS; assay type: in vitro ADME; conditions: 37 °C, 1 h; to lysmerylic acid and p-tert-butylbenzoic acid as major metabolites
Description: Metabolic activation was verified using GC/HRMS as described above.

Structure (SMILES): CC(C=O)Cc1ccc(C(C)(C)C)cc1 (stereo not shown) [Lilial, 3-(4-(tert-butyl)phenyl)-2-methylpropanal]
- Effect on cell viability (Hek293 cells): no negative effect
- Effects on fertility and reproductive performance (rats): no adverse effects
- Mouse lymphoma assay outcome (mouse lymphoma cells): negative outcome
- MF (/106) mutation frequency (CHO-K1 cells (hprt gene) [1]; Table 4, With S9): 6 ± 5 /106
- NMC (number of mutant colonies) (CHO-K1 cells (hprt gene) [1]; Table 4, Without S9): 0
- Dermal absorption value ([2]; hydroalcoholic-based fragrances and deodorant/antiperspirant products ref 3): 13.5%
- Dermal absorption value ([2]; oil-in-water-based products ref 3): 8.9%
- Dermal absorption value ([2]; water-in-oil-based products ref 3): 10.5%
- Oral dose that reduced body weight, gave clinical and systemic toxicity (dogs): ≥ 200 mg/kg/day
- NF-κB signal pathway activation result (NF-κB signal pathway): Non activator
- NF-κB signal pathway activation result (NF-κB signal pathway; listed as lilial): neither the NF-kB (Fig. 7) nor NRF2 (Fig. 8) signalling pathway was activated
- Mean of applied dose detected in urine ([3]; dermal 6 h, urine within 24 h ref 4): 1.4%
- Topical application recovery ([3]; dermal 6 h ref 4): 71 ± 10%
- Level of NRF2 protein [4]: significant increase
- Decrease in cell viability (HaCaT cells): 65%
- viability at 1 day [5]: > 80%
- Cytotoxicity result (HeLa9903 cells): Non toxic up to 100 µM
- Genotoxicity result (HeLa cells; 100 µM): Non genotoxic
- MoA (mean fluorescence values over area of the nuclei) (HeLa cells; 4h_S9, lilial 100 µM): 0.20
- MoA (mean fluorescence values over area of the nuclei) (HeLa cells; 4 h, without S9, lilial 100 µM): 0.11
- MoA (mean fluorescence values over area of the nuclei) (HeLa cells; 24 h, lilial 100 µM): 0.03
- In vitro dermal absorption [6]: 25.7%
- Mutagenicity result (CHO-K1 cells (hprt gene) [7]): Non mutagenic
- Mutagenicity result (CHO-K1 cells (hprt gene) [7]; listed as lilial): not mutagenic
- MF (/10^6) mutation frequency (CHO-K1 cells (hprt gene) [7]; Table 3, without activation, lilial 50 µM, EMS 240 µg/ml (2 mM), 4 h): 9 ± 4 /10^6
- NMC (number of mutant colonies) (CHO-K1 cells (hprt gene) [7]; Table 4, With S9, lilial 500 µM, 3MC 2 µg/ml): 1 ± 1
- Decrease in cell viability (Caco-2 cells): 23%
- Metabolism in presence of Arochlor-induced rat liver S9 fractions [8]: almost completely metabolised
